Data published in US7592000B2, “Method of tanning human body by mysting or immersion at elevated temperature” (Merck Patent GmbH, priority 2004, dated 2009).

What was measured:
[1] = monomer/dimer equilibrium of DHA dissolved in water; type: physicochemical; settings: DHA solutions at 30-50° C. versus 20° C.
Source text: It is assumed that the effect, advantageous according to the invention, of the improved tanning effect at elevated temperatures in the case of 1,3-dihydroxyacetone is connected with the following mechanism. As a raw material, DHA is in the form of a powder and consists of dimers. Dissolved in water, some of the dimers convert to the active monomeric form, which brings about the tanning reaction. At an elevated water temperature, the amount of monomers increases. […] At the same time, the elevated temperature increases the reaction rate of the tanning reaction. […] It is therefore preferred according to the invention when the solution of the self-tanning substance is tempered for about 15 min, but at least about 10 min, before the solution is applied to the human skin.

[2] = over the entire pH range; cited from earlier work

O=C(CO)CO [DHA, 1,3-dihydroxyacetone]
more active DHA monomers present than in DHA solutions at 20° C. [1]: up to 30%

O=c1c(O)c(-c2ccc(O)c(O)c2)oc2cc(O)cc(O)c12 [quercetin, 3,3′,4′,5,7-pentahydroxyflavone]
antioxidative activity relative to the investigated structures [2]: highest activity of the investigated structures
